According to US20230157308A1, “PERMEABILIZED MICROBIAL CELL CATALYSTS” (DANMARKS TEKNISKE UNIVERSITET, priority 2020, published 2023):

Legend:
[1] = system: S. thermophilus CS1980 cells; experiment: Lactose hydrolysis by permeabilized S. thermophilus CS1980 cells; assay type: cell-based, Streptococcus thermophilus; details: for effectiveness in cell permeabilization: 100 mg/L agent, 100 mg/l S. thermophilus cells, POM buffer
Method: S. thermophilus strains were grown in 500-ml Erlenmeyer flasks containing 200 mL of medium at 37° C. for 16 h without agitation. 2 mL of an overnight culture was used as inoculum. Cells were collected by centrifugation at 10,000×g for 10 min at 4° C., washed once with sterile POM buffer (50 mM K2HPO4/KH2PO4, 1 mM MgCl2, pH 7.4) and finally re-suspended in POM buffer to an optical density (OD600) of 0.3, corresponding to approximately 0.1 g/L (dry weight basis). For permeabilization, cell suspensions were dispensed into sterile tubes (1 mL per tube) and centrifuged in a microcentrifuge at 10,000×g for 5 min at 4° C. After decanting the supernatants, cell pellets were resuspended in 1 mL POM buffer containing different concentrations (10 mg/l and 100 mg/l) of monolaurin (Toronto Research Chemicals, Toronto, Canada), and were maintained for 10 min at 28° C. Non permeabilized cells in POM buffer were used as control. 100 mg/l of monomyristin was also tested as premeabilization agent. The cells were resuspended in POM buffered lactose (50 g/L) solution. The hydrolysis was carried out at 50° C. for 2 h. The concentration of lactose, glucose and galactose was determined on an Ultimate 3000 high-performance liquid chromatography (HPLC) system (Dionex) equipped with an Aminex HPX-87H column (Bio-Rad) and a Shodex RI-101 detector (Showa Denko K.K.). The column oven temperature was set to 60° C., and the mobile phase consisted of 5 mM H2SO4. The flow rate used was 0.5 mL/min.

S. thermophilus CS1980 [2] = experiment: Lactose hydrolysis: monolaurin- versus ethanol-permeabilized cells; assay type: cell-based, Streptococcus thermophilus; details: for stability of the whole-cell catalyst: 100 μg/ml monolaurin or 45% (v/v) ethanol, 10 min at 28° C.
Method: S. thermophilus CS1980 was permeabilized for 10 minutes at 28° C. using (i) 100 μg/ml monolaurin in POM buffer or (ii) 45% (v/v) ethanol for 10 minutes, or (iii) not permeabilized (control). Hydrolysis of lactose in POM buffer (50 g/l lactose) at 50° C. was carried out at a cell concentration of approximately 100 mg/l.

[3] = system: Lactococcus lactis biovar. diacetylactis RD1M5 cells; experiment: Acetoin production from pyruvate by permeabilized RD1M5 cells; assay type: cell-based; details: 100 mg/L monolaurin, 20 min at 30° C.; 700 mg/L cells, 100 mM pyruvate, 1 h
Method: Lactococcus lactis biovar. diacetylactis RD1M5 was permeabilized as described in example 1.2, using 100 mg/L monolaurin for 20 min at 30° C. 700 mg/L cells were suspended in POM buffer solution with 100 mM pyruvate. After 1 h, the cells were removed and the supernatant was used to quantify the acetoin concentration. Quantification of lactose, lactate, acetoin, and citrate were carried out using an Ultimate high-performance liquid chromatography system equipped with a Aminex HPX-87H column (300×7.8 mm column) (Bio-Rad, Hercules, USA) and a Shodex RI-101 refractive index detector (Showa Denko K.K., Tokyo, Japan). The mobile phase was 5 mM H2SO4 with a flow rate of 0.5 mL/min and the column oven temperature was maintained at 60° C.

S. thermophilus CS1980 [4] = experiment: Permeabilization of S. thermophilus CS1980 at different temperatures; assay type: cell-based, Streptococcus thermophilus; details: permeabilization temperatures 20-50° C.
Method: […] Controls are prepared without addition of monolaurin in the permeabilization step. Hydrolysis of lactose by monolaurin-treated cells is carried out in a POM buffered solution.

## CCCCCCCCCCCCCC(=O)OCC(O)CO (stereo not drawn) [Monomyristin, monomyristin]
[1]
  effectiveness in cell permeabilization: same effectiveness in cell permeabilization as monolaurin

## CCO [ethanol, reference compound]
S. thermophilus CS1980 [2]
  stability of the whole-cell catalyst: compromised the stability of the whole-cell catalyst

## CCCCCCCCCCCC(=O)OCC(O)CO (stereo not drawn) [monolaurin]
[1]
  effectiveness in cell permeabilization: efficiently permeabilizes the cells
[1]; cells permeabilized 10 min at 28° C., 50 g/L lactose, 2 hours at 50° C., 100 mg/L cells (dry weight)
  lactose hydrolyzed by permeabilized cells: 55%
[1]; too low monolaurin concentration (10 mg/l tested), 50 g/L lactose, 50° C.
  hydrolysis by cells treated with too low monolaurin concentration: neglectable
[3]
  acetoin produced from pyruvate compared to non-treated cells: much higher concentrations of acetoin
S. thermophilus CS1980 [2]
  stability of the whole-cell catalyst: higher stability
S. thermophilus CS1980 [2]; permeabilized 10 min at 28° C., 100 μg/ml monolaurin, 50 g/l lactose, 50° C., about 100 mg/l cells
  lactose conversion by permeabilized cells: perform better than the control as well as the ethanol-permeabilized cells
S. thermophilus CS1980 [4]
  efficiency of permeabilization over temperature range: equally efficient
